Laboratory results taken from patent EP0620225B1, “Cephalosporin derivatives” (Basilea Pharmaceutica AG, priority 1993, dated 1994).
In brackets after ≈: the same amount, converted by molar mass. Like-named read-outs stand apart in the source and are kept apart here.

Experiments:
S.viridans group = assay: In vitro activity against selected species (MIC50, MIC90, range); assay type: cell-based; details: Streptococcus viridans
E.faecium = assay: In vitro activity against selected species (MIC50, range); assay type: cell-based; details: Enterococcus faecium, medium MHA
Description: (§1) In vitro activity was determined by minimum inhibitory concentration in a microorganism spectum by the agar dilution method in Mueller Hinton agar.

C.freundii 902 = assay: Antibacterial spectrum (MIC), agar dilution; assay type: cell-based
Description: as §1

E.faecalis 6 = assay: Antibacterial spectrum (MIC), agar dilution; assay type: cell-based
Description: as §1

E.cloacae 908R = assay: Antibacterial spectrum (MIC), agar dilution; assay type: cell-based
Description: as §1

S.agalactiae QK44 = assay: Antibacterial spectrum (MIC), agar dilution; assay type: cell-based
Description: as §1

H.influenzae 1 = assay: Antibacterial spectrum (MIC), agar dilution; assay type: cell-based
Description: as §1

S.viridans group 016 = assay: Antibacterial spectrum (MIC), agar dilution; assay type: cell-based
Description: as §1

S.marcescens 69438 = assay: Antibacterial spectrum (MIC), agar dilution; assay type: cell-based
Description: as §1

E.cloacae 908SSi = assay: Antibacterial spectrum (MIC), agar dilution; assay type: cell-based
Description: as §1

S.pneumoniae Q19 = assay: Antibacterial spectrum (MIC), agar dilution; assay type: cell-based
Description: as §1

P.vulgaris 1028 = assay: Antibacterial spectrum (MIC), agar dilution; assay type: cell-based
Description: as §1

E.coli 25922 = assay: Antibacterial spectrum (MIC), agar dilution; assay type: cell-based
Description: as §1

M.catarrhalis RA21 = assay: Antibacterial spectrum (MIC), agar dilution; assay type: cell-based
Description: as §1

L.monocytogenes BK23 = assay: Antibacterial spectrum (MIC), agar dilution; assay type: cell-based
Description: as §1

S.pyogenes B15 = assay: Antibacterial spectrum (MIC), agar dilution; assay type: cell-based
Description: as §1

P.aeruginosa 27853 = assay: Antibacterial spectrum (MIC), agar dilution; assay type: cell-based
Description: as §1

P.mirabilis 2117 = assay: Antibacterial spectrum (MIC), agar dilution; assay type: cell-based
Description: as §1

S.aureus 734 MRSA = assay: Antibacterial spectrum (MIC), agar dilution; assay type: cell-based
Description: as §1

M.morganii 6H-137 = assay: Antibacterial spectrum (MIC), agar dilution; assay type: cell-based
Description: as §1

N.meningitidis 69480 = assay: Antibacterial spectrum (MIC), agar dilution; assay type: cell-based
Description: as §1

S.aureus 6538 = assay: Antibacterial spectrum (MIC), agar dilution; assay type: cell-based
Description: as §1

X.maltophilia 1AC739 = assay: Antibacterial spectrum (MIC), agar dilution; assay type: cell-based
Description: as §1

K.pneumoniae 418 = assay: Antibacterial spectrum (MIC), agar dilution; assay type: cell-based
Description: as §1

Acinetobacter sp.51-156 = assay: Antibacterial spectrum (MIC), agar dilution; assay type: cell-based
Description: as §1

C.freundii 43 = assay: Antibacterial spectrum (MIC), agar dilution; assay type: cell-based
Description: as §1

S.aureus MSSA = assay: In vitro activity against selected species (MIC50, MIC90, range); assay type: cell-based; details: Staphylococcus aureus, medium MHB (Mueller Hinton Broth)
M.catarrhalis = assay: as above; assay type: cell-based; details: Moraxella catarrhalis, medium IsoB
S.aureus Smith = assay: Efficacy against systemic infections (septicemia) in mice; assay type: in vivo; details: Staphylococcus aureus, 96 h, sc 1 and 3 h after challenge, survival day 4
Description: (§2) Septicemia was induced in outbred Swiss albino mice (Jbm MoRo [specific pathogen free]; weight 16 to 20 g, Biomedical Research Laboratories, Füllinsdorf, Switzerland). Mice were infected by intraperitoneal injection of diluted overnight cultures of the test organisms. Bacterial challenge doses were 4-10 times the number of organisms required to kill 50% of untreated animals within 48 h. The test compounds were administered p.o. or s.c. 1 and 3 h after the bacterial challenge. To treat the infection with Pseudomonas aeruginosa BA an additional dose was given 5 h after challenge. Control and treatment groups at each dose were composed of five mice each. The 50% effective dose (ED50, in milligrams per kilogram) was calculated by probit analysis as described by Finney (Finney, D.J. 1978, Statistical method in biological assay, 3rd ed. Charles Griffin & Co., Ltd., London), from the survival rates on day 4 after infection.

Escherichia coli 25922 = assay: as above; assay type: in vivo; details: 96 h, survival day 4
Description: as §2

E.faecalis [1] = assay: In vitro activity against selected species (MIC50, MIC90, range); assay type: cell-based; details: Enterococcus faecalis, medium IsoB
S.aureus MRSA = assay: as above; assay type: cell-based; details: Staphylococcus aureus, medium MHA (Mueller Hinton Agar) +NaCl
Description: as §1

E.faecalis [2] = assay: as above; assay type: cell-based; details: Enterococcus faecalis, medium MHA
Description: as §1

S.pneumoniae PEN-R = assay: as above; assay type: cell-based; details: Streptococcus pneumoniae; for MIC: MIC range
P.asaccharolyticus 29743 = assay: Antibacterial spectrum (MIC), agar dilution; assay type: cell-based
Description: as §1

B.fragilis ATCC25285 = assay: Antibacterial spectrum (MIC), agar dilution; assay type: cell-based
Description: as §1

C.difficile ZH1 = assay: Antibacterial spectrum (MIC), agar dilution; assay type: cell-based
Description: as §1

[3] = Citrobacter freundii, read-out: MIC
[4] = Enterobacter cloacae, read-out: MIC
[5] = Staphylococcus aureus, read-out: MIC
[6] = medium IsoB (Isosensitest Broth)

COc1ccc(N2CC/C(=C\C3=C(C(=O)O)N4C(=O)[C@@H](NC(=O)/C(=N\O)c5csc(N)n5)[C@H]4SC3)C2=O)cc1 [I]
MIC50 (S.viridans group): 0.5 mg/L (≈ 0.876 µM) | MIC90 (S.viridans group): 2 mg/L (≈ 3.51 µM) | MIC (S.viridans group; MIC range): 0.12 to 4 mg/L (≈ 0.21 to 7.01 µM) | MIC (E.faecium; MIC range): 0.1 to 16 mg/L (≈ 0.175 to 28 µM) | MIC50 (E.faecium): 2 mg/L (≈ 3.51 µM) | MIC (C.freundii 902; [3]): 0.25 mg/L (≈ 0.438 µM) | MIC (E.faecalis 6; Enterococcus faecalis, read-out: MIC): 0.25 mg/L (≈ 0.438 µM) | MIC (E.cloacae 908R; [4]): 32 mg/L (≈ 56.1 µM) | MIC (S.agalactiae QK44; Streptococcus agalactiae, read-out: MIC): 0.25 mg/L (≈ 0.438 µM) | MIC (H.influenzae 1; Haemophilus influenzae, read-out: MIC): 0.25 mg/L (≈ 0.438 µM) | MIC (S.viridans group 016; Streptococcus viridans, read-out: MIC): 0.5 mg/L (≈ 0.876 µM) | MIC (S.marcescens 69438; Serratia marcescens, read-out: MIC): 1 mg/L (≈ 1.75 µM) | MIC (E.cloacae 908SSi; [4]): 0.5 mg/L (≈ 0.876 µM) | MIC (S.pneumoniae Q19; Streptococcus pneumoniae, read-out: MIC): ≤ 0.06 mg/L | MIC (P.vulgaris 1028; Proteus vulgaris, read-out: MIC): 2 mg/L (≈ 3.51 µM) | MIC (E.coli 25922; Escherichia coli, read-out: MIC): 0.12 mg/L (≈ 0.21 µM) | MIC (M.catarrhalis RA21; Moraxella catarrhalis, read-out: MIC): > 16 mg/L | MIC (L.monocytogenes BK23; Listeria monocytogenes, read-out: MIC): 2 mg/L (≈ 3.51 µM) | MIC (S.pyogenes B15; Streptococcus pyogenes, read-out: MIC): ≤ 0.06 mg/L | MIC (P.aeruginosa 27853; Pseudomonas aeruginosa, read-out: MIC): > 32 mg/L | MIC (P.mirabilis 2117; Proteus mirabilis, read-out: MIC): 0.12 mg/L (≈ 0.21 µM) | MIC (S.aureus 734 MRSA; [5]): 8 mg/L (≈ 14 µM) | MIC (M.morganii 6H-137; Morganella morganii, 6H137, read-out: MIC): ≤ 0.06 mg/L | MIC (N.meningitidis 69480; Neisseria meningitidis, read-out: MIC): ≤ 0.06 mg/L | MIC (S.aureus 6538; [5]): 0.5 mg/L (≈ 0.876 µM) | MIC (X.maltophilia 1AC739; Stenotrophomonas maltophilia, read-out: MIC): > 32 mg/L | MIC (K.pneumoniae 418; Klebsiella pneumoniae, read-out: MIC): 0.12 mg/L (≈ 0.21 µM) | MIC (Acinetobacter sp.51-156; SP.51156, read-out: MIC): 32 mg/L (≈ 56.1 µM) | MIC (C.freundii 43; [3]): 8 mg/L (≈ 14 µM) | MIC (S.aureus MSSA; MIC range): 0.5 to 1 mg/L (≈ 0.876 to 1.75 µM) | MIC50 (S.aureus MSSA): 0.5 mg/L (≈ 0.876 µM) | MIC90 (S.aureus MSSA): 0.5 mg/L (≈ 0.876 µM) | MIC (M.catarrhalis; MIC range): 1 to 64 mg/L (≈ 1.75 to 112 µM) | MIC50 (M.catarrhalis): 8 mg/L (≈ 14 µM) | MIC90 (M.catarrhalis): 16 mg/L (≈ 28 µM) | ED50 (S.aureus Smith): < 1 mg/kg | ED50 (Escherichia coli 25922; Escherichia coli 25922, po (orally) 1 and 3 h after challenge): 4.5 mg/kg | ED50 (Escherichia coli 25922; Escherichia coli, E.coli 25922, sc 1 and 3 h after challenge): < 0.3 mg/kg | MIC (E.faecalis [1]; MIC range): 0.25 to 1 mg/L (≈ 0.438 to 1.75 µM) | MIC50 (E.faecalis [1]): 0.5 mg/L (≈ 0.876 µM) | MIC90 (E.faecalis [1]): 1 mg/L (≈ 1.75 µM) | MIC (S.aureus MRSA; MIC range): 16 to 32 mg/L (≈ 28 to 56.1 µM) | MIC50 (S.aureus MRSA): 16 mg/L (≈ 28 µM) | MIC90 (S.aureus MRSA): 32 mg/L (≈ 56.1 µM) | MIC (E.faecalis [2]; MIC range): 0.5 to 1 mg/L (≈ 0.876 to 1.75 µM) | MIC50 (E.faecalis [2]): ≤ 0.5 mg/L | MIC90 (E.faecalis [2]): 1 mg/L (≈ 1.75 µM) | MIC (S.pneumoniae PEN-R; [6]): 0.12 to 0.25 mg/L (≈ 0.21 to 0.438 µM) | MIC (S.pneumoniae PEN-R; medium IsoB + 20% serum): 0.12 to 0.5 mg/L | MIC50 (S.pneumoniae PEN-R; [6]): ≤ 0.12 mg/L | MIC90 (S.pneumoniae PEN-R; [6]): ≤ 0.12 mg/L | MIC50 (S.pneumoniae PEN-R; medium IsoB + 20% serum): 0.25 mg/L

Nc1nc(/C(=N/O)C(=O)N[C@@H]2C(=O)N3C(C(=O)O)=C(/C=C4\CCN(c5cccnc5)C4=O)CS[C@H]23)cs1 [K, [6R-[3(E),6α,7β(Z)]]-7-[[(2-Amino-4-thiazolyl)(hydroxyimino)acetyl]-amino]-8-oxo-3-[[2-oxo-1-(3-pyridinyl)-3-pyrrolidinylidene]methyl]-5-thia-1-azabicyclo[4.2.0]oct-2-ene-2-carboxylic acid]
MIC (C.freundii 902): ≤0.12 mg/L | MIC (E.faecalis 6): 1 mg/L (≈ 1.85 µM) | MIC (E.cloacae 908R): 4 mg/L (≈ 7.39 µM) | MIC (S.agalactiae QK44): 0.5 mg/L (≈ 0.923 µM) | MIC (H.influenzae 1): 0.25 mg/L (≈ 0.462 µM) | MIC (S.viridans group 016): 1 mg/L (≈ 1.85 µM) | MIC (S.marcescens 69438): 0.5 mg/L (≈ 0.923 µM) | MIC (E.cloacae 908SSi): ≤0.12 mg/L | MIC (S.pneumoniae Q19): 0.12 mg/L (≈ 0.222 µM) | MIC (P.vulgaris 1028): 4 mg/L (≈ 7.39 µM) | MIC (E.coli 25922): ≤0.12 mg/L | MIC (M.catarrhalis RA21): >16 mg/L | MIC (L.monocytogenes BK23): 8 mg/L (≈ 14.8 µM) | MIC (S.pyogenes B15): ≤0.06 mg/L | MIC (P.aeruginosa 27853): 16 mg/L (≈ 29.5 µM) | MIC (P.mirabilis 2117): ≤0.12 mg/L | MIC (S.aureus 734 MRSA): 8 mg/L (≈ 14.8 µM) | MIC (M.morganii 6H-137): ≤0.12 mg/L | MIC (N.meningitidis 69480): ≤0.06 mg/L | MIC (S.aureus 6538): 1 mg/L (≈ 1.85 µM) | MIC (P.asaccharolyticus 29743): ≤0.25 mg/L | MIC (B.fragilis ATCC25285): 4 mg/L (≈ 7.39 µM) | MIC (X.maltophilia 1AC739): >32 mg/L | MIC (K.pneumoniae 418): ≤0.12 mg/L | MIC (C.difficile ZH1): 16 mg/L (≈ 29.5 µM) | MIC (Acinetobacter sp.51-156): 32 mg/L (≈ 59.1 µM) | MIC (C.freundii 43): 2 mg/L (≈ 3.69 µM)
